Read-outs that look alike come from different tables or passages of the source.
Key:
[1] = test system: grape downy mildew fungus; assay: Test Example 9: grape downy mildew, foliage application then inoculation; conditions: grape seedling
Protocol: (§1) Each of plastic pots was filled with sandy loam and sown with grape (Berry A), followed by growing in a greenhouse for 40 days. […] Then, the young seedling was inoculated with a suspension of zoosporangia of grape downy mildew fungus by spraying. After the inoculation, the young seedling was allowed to stand overnight at 23° C. and a high humidity and then grown in a greenhouse for 7 days, after which the infection rate (%) was investigated.

[2] = test system: gray mold fungi sensitive to benzimidazole type fungicidal compounds; assay: Test Example 12: cucumber gray mold, benzimidazole-sensitive fungus; conditions: cucumber seedling
Protocol: Each of plastic pots was filled with sandy loam and sown with cucumber (Sagamihanjiro), followed by growing in a greenhouse for 14 days. A wettable powder of test agents prepared according to Formulation Example 41 was diluted to a predetermined concentration with water, and foliage application of the dilution was carried out so as to adhere the dilution sufficiently to the surfaces of leaves of the grown cucumber young seedling. After air-drying, each of gray mold fungi sensitive and tolerant, respectively, to benzimidazole type fungicidal compounds was inoculated on the surfaces of leaves of the young seedling, and the young seedling was grown in the dark at 10° C. and a high humidity for 4 days, after which the infection rate (%) was investigated.

apple scab fungus [3] = assay: Test Example 13: apple scab, foliage application then inoculation; type: in vivo, Venturia inaequalis; conditions: apple seedling
[4] = test system: gray mold fungi tolerant to benzimidazole type fungicidal compounds; assay: Test Example 12: cucumber gray mold, benzimidazole-tolerant (resistant) fungus; conditions: cucumber seedling
Protocol: Each of plastic pots was filled with sandy loam and sown with cucumber (Sagamihanjiro), followed by growing in a greenhouse for 14 days. […] After air-drying, each of gray mold fungi sensitive and tolerant, respectively, to benzimidazole type fungicidal compounds was inoculated on the surfaces of leaves of the young seedling, and the young seedling was grown in the dark at 10° C. and a high humidity for 4 days, after which the infection rate (%) was investigated.

apple scab fungus [5] = assay: Test Example 8: apple scab, foliage application then inoculation; type: in vivo, Venturia inaequalis; conditions: apple seedling
[6] = test system: grape downy mildew fungus; assay: Test Example 6: grape downy mildew, foliage application then inoculation; conditions: grape seedling
Protocol: as §1

[7] = test system: tomato late blight fungus; type: in vivo, Phytophthora infestans; conditions: tomato seedling
[8] = test system: grape downy mildew fungus; assay: Test Example 7: grape downy mildew, foliage application then inoculation; conditions: grape seedling
Protocol: as §1

[9] = test system: grape downy mildew fungus (Plasmopara viticola); assay: Test Example 2: grape downy mildew, spray then inoculation, infection rate; type: in vivo; conditions: grape plant, 1 week at 24° C.
Text: A grape plant (cultivar: Berry A) was planted in each pot and was sprayed with a sufficient volume of a dilution with a predetermined concentration of a wettable powder obtained according to Formulation Example 5, after the plant put out a fourth leaf.

[10] = test system: gray mold fungi tolerant to benzimidazole type fungicidal compounds; assay: Test Example 17: cucumber gray mold, benzimidazole-tolerant (resistant) fungus; conditions: cucumber seedling
Protocol: (§2) Each of plastic pots was filled with sandy loam and sown with cucumber (Sagamihanjiro), followed by growing in a greenhouse for 14 days. A wettable powder of test agents prepared according to Formulation Example 59 was diluted to a predetermined concentration with water, and foliage application of the dilution was carried out so as to adhere the dilution sufficiently to the surfaces of leaves of the grown cucumber young seedling. After air-drying, each of gray mold fungi sensitive and tolerant, respectively, to benzimidazole type fungicidal compounds was inoculated on the surfaces of leaves of the young seedling, and the young seedling was grown in the dark at 10° C. and a high humidity for 4 days, after which the infection rate (%) was investigated.

gray mold fungus [11] = assay: Test Example 3: cucumber gray mold, foliage application before inoculation; conditions: cucumber seedling, applied before inoculation, 4 days
Protocol: Each of plastic pots was filled with sandy loam and sown with cucumber (Sagamihanjiro), followed by growing in a greenhouse for 14 days. A wettable powder of test agents prepared according to Formulation Example 11 was diluted to a predetermined concentration with water, and foliage application of the dilution was carried out so as to adhere the dilution sufficiently to the surfaces of leaves of the grown cucumber young seedling. After air-drying, gray mold fungus was inoculated on the surfaces of leaves of the young seedling, and the young seedling was grown in the dark at 10° C. and a high humidity for 4 days, after which the infection rate (%) was investigated.

[12] = test system: gray mold fungi sensitive to benzimidazole type fungicidal compounds; assay: Test Example 17: cucumber gray mold, benzimidazole-sensitive fungus; conditions: cucumber seedling
Protocol: as §2

[13] = test system: grape powdery mildew fungus (Uncinula necator); assay: Test Example 16: grape powdery mildew, spray then inoculation; type: in vivo; conditions: grape plant, 3 weeks at 24° C.
[14] = test system: tomato late blight fungus (Phytophthora infestans); type: in vivo; conditions: tomato plant, 1 week at 24° C.
gray mold fungus [15] = assay: Test Example 4: cucumber gray mold, foliage application after inoculation; conditions: cucumber seedling, applied after inoculation
Protocol: Each of plastic pots was filled with sandy loam and sown with cucumber (Sagamihanjiro), followed by growing in a greenhouse for 14 days. Gray mold fungus was inoculated on the surfaces of leaves of the grown cucumber young seedling, and the young seedling was grown in the dark at 10° C. and a high humidity for 2 days and then at a temperature of 23° C. for 3 days. A wettable powder of test agents prepared according to Formulation Example 11 was diluted to a predetermined concentration with water, and foliage application of the dilution was carried out so as to adhere the dilution sufficiently to the surfaces of leaves of the cucumber young seedling. After the spraying, the young seedling was grown in the dark at 10° C. and a high humidity for 3 days, and then the infection rate (%) was investigated.

[16] = test system: tomato late blight fungus; type: in vivo, Phytophthora infestans; conditions: tomato seedling; remark: listed apart in the source
gray mold fungus [17] = assay: Test Example 11: cucumber gray mold, foliage application before inoculation; conditions: cucumber seedling
Protocol: Each of plastic pots was filled with sandy loam and sown with cucumber (Sagamihanjiro), followed by growing in a greenhouse for 14 days. A wettable powder of test agents prepared according to Formulation Example 35 was diluted to a predetermined concentration with water, and foliage application of the dilution was carried out so as to adhere the dilution sufficiently to the surfaces of leaves of the grown cucumber young seedling. After air-drying, gray mold fungus was inoculated on the surfaces of leaves of the young seedling, and the young seedling was grown in the dark at 10° C. and a high humidity for 4 days, after which the infection rate (%) was investigated.

[18] = test system: grape powdery mildew fungus (Uncinula necator); assay: Test Example 14: grape powdery mildew, spray then inoculation; type: in vivo; conditions: grape plant, 3 weeks at 24° C.
[19] = test system: tomato late blight fungus (Phytophthora infestans); type: in vivo; conditions: tomato plant, 1 week at 24° C.; remark: listed apart in the source

Compound: COC(=O)[C@H](C)N(C(=O)Cc1ccccc1)c1c(C)cccc1C [Benalaxyl, methyl N-(2,6-dimethylphenyl)-N-(phenylacetyl)alaninate]
- Infection rate (%) ([1]; 1 ppm): 25%

Compound: CCCCNC(=O)n1c(NC(=O)OC)nc2ccccc21 [Benomyl, methyl 1-(butylcarbamoyl)-2-benzimidazole-carbamate, reference compound]
- Infection rate (%) Sensitive fungus ([2]; 10 ppm): 20%
- Infection rate (%) (apple scab fungus [3]; 20 ppm): 25%
- Infection rate (%) Resistant fungus ([4]; 10 ppm): 100%

Compound: O=C1C2CC=CCC2C(=O)N1SC(Cl)(Cl)Cl (stereo not drawn) [Captan, 1,2,3,6-tetrahydro-N-(trichloromethylthio)phthalimide, reference compound]
- Infection rate (%) (apple scab fungus [5]; 300 ppm): 20%

Compound: N#Cc1c(Cl)c(Cl)c(Cl)c(C#N)c1Cl [Chlorothalonil, tetrachloroisophthalonitrile, reference compound]
- Infection rate (%) ([6]; 30 ppm): 20%
- Infection rate (%) ([7]; 40 ppm): 20%

Compound: CON=C(C(=O)OC)c1ccccc1COc1ccccc1C [Compound (Ia), methyl α-methoxyimino-2-[(2-methylphenoxy)methyl]phenylacetate]
- Infection rate (%) ([8]; 10 ppm): 20%
- Infection rate (%) Sensitive fungus ([2]; 10 ppm): 30%
- Infection rate (%) ([9]; 10 ppm): 30%
- Infection rate (%) Resistant fungus ([10]; 10 ppm): 30%
- Infection rate (%) (apple scab fungus [3]; 1 ppm): 20%
- Infection rate (%) (gray mold fungus [11]; 10 ppm): 30%
- Infection rate (%) ([1]; 20 ppm): 25%
- Infection rate (%) Sensitive fungus ([12]; 10 ppm): 30%
- Infection rate (%) ([6]; 5 ppm): 20%
- Infection rate (%) ([13]; 10 ppm): 30%
- Infection rate (%) Resistant fungus ([4]; 10 ppm): 30%
- Infection rate (%) (apple scab fungus [5]; 0.8 ppm): 20%
- Infection rate (%) ([14]; 10 ppm): 25%
- Infection rate (%) (gray mold fungus [15]; 10 ppm): 30%
- Infection rate (%) ([16]; 100 ppm): 25%
- Infection rate (%) ([7]; 50 ppm): 25%
- Infection rate (%) (gray mold fungus [17]; 10 ppm): 30%
- Infection rate (%) ([18]; 1 ppm): 20%
- Infection rate (%) ([19]; 10 ppm): 25%

Compound: CNC(=O)C(=NOC)c1ccccc1COc1cccc(Cl)c1 [Compound (Ic), N-methyl-α-methoxyimino-2-[(3-chlorophenoxy)methyl]phenylacetamide]
- Infection rate (%) ([8]; 10 ppm): 25%
- Infection rate (%) Sensitive fungus ([2]; 200 ppm): 20%
- Infection rate (%) ([9]; 10 ppm): 25%
- Infection rate (%) Resistant fungus ([10]; 200 ppm): 20%
- Infection rate (%) (apple scab fungus [3]; 1 ppm): 30%
- Infection rate (%) (gray mold fungus [11]; 200 ppm): 20%
- Infection rate (%) ([1]; 100 ppm): 20%
- Infection rate (%) Sensitive fungus ([12]; 200 ppm): 20%
- Infection rate (%) ([6]; 5 ppm): 25%
- Infection rate (%) ([13]; 10 ppm): 25%
- Infection rate (%) Resistant fungus ([4]; 200 ppm): 20%
- Infection rate (%) (apple scab fungus [5]; 5 ppm): 25%
- Infection rate (%) ([14]; 10 ppm): 25%
- Infection rate (%) (gray mold fungus [15]; 200 ppm): 20%
- Infection rate (%) ([16]; 40 ppm): 20%
- Infection rate (%) ([7]; 40 ppm): 20%
- Infection rate (%) (gray mold fungus [17]; 200 ppm): 20%
- Infection rate (%) ([18]; 1 ppm): 20%
- Infection rate (%) ([19]; 10 ppm): 25%

Compound: CNC(=O)C(=NOC)c1ccccc1COc1ccc(Cl)cc1Cl [Compound (Id), N-methyl-α-methoxyimino-2-[(2,4-dichlorophenoxy)methyl]phenylacetamide]
- Infection rate (%) ([8]; 10 ppm): 20%
- Infection rate (%) Sensitive fungus ([2]; 200 ppm): 20%
- Infection rate (%) ([9]; 10 ppm): 25%
- Infection rate (%) Resistant fungus ([10]; 200 ppm): 20%
- Infection rate (%) (apple scab fungus [3]; 5 ppm): 20%
- Infection rate (%) (gray mold fungus [11]; 200 ppm): 20%
- Infection rate (%) ([1]; 40 ppm): 20%
- Infection rate (%) Sensitive fungus ([12]; 200 ppm): 20%
- Infection rate (%) ([6]; 5 ppm): 25%
- Infection rate (%) ([13]; 10 ppm): 25%
- Infection rate (%) Resistant fungus ([4]; 200 ppm): 20%
- Infection rate (%) (apple scab fungus [5]; 5 ppm): 25%
- Infection rate (%) ([14]; 10 ppm): 25%
- Infection rate (%) (gray mold fungus [15]; 200 ppm): 20%
- Infection rate (%) ([16]; 40 ppm): 20%
- Infection rate (%) ([7]; 40 ppm): 20%
- Infection rate (%) (gray mold fungus [17]; 200 ppm): 20%
- Infection rate (%) ([18]; 1 ppm): 25%
- Infection rate (%) ([19]; 10 ppm): 25%

Compound: [Cl-].[Cu+2].[Cu+2].[OH-].[OH-].[OH-] [Copper oxychloride, reference compound]
- Infection rate (%) ([13]; 500 ppm): 30%
- Infection rate (%) ([14]; 500 ppm): 25%

Compound: [Cu+2].[O-]c1cccc2cccnc12.[O-]c1cccc2cccnc12 [Copper oxyquinolinolate, copper oxyquinolinolate (8-hydroxyquinolinate), reference compound]
- Infection rate (%) ([13]; 200 ppm): 25%
- Infection rate (%) ([14]; 50 ppm): 25%

Compound: CCNC(=O)NC(=O)C(C#N)=NOC [Cymoxanil, 2-cyano-N-[ethylaminocarbonyl]-2-(methoxyimino)acetamide]
- Infection rate (%) ([1]; 40 ppm): 20%

Compound: CCOc1ccc(NC(=O)OC(C)C)cc1OCC [Diethofencarb, isopropyl 3,4-diethoxyphenylcarbamate, reference compound]
- Infection rate (%) Resistant fungus ([10]; 10 ppm): 20%
- Infection rate (%) Sensitive fungus ([12]; 10 ppm): 100%

Compound: O=[N+]([O-])c1cc(C(F)(F)F)c(Cl)c([N+](=O)[O-])c1Nc1ncc(C(F)(F)F)cc1Cl [Fluazinam, 3-chloro-N-(3-chloro-5-trifluoromethyl-2-pyridyl)-α,α,α-trifluoro-2,6-dinitro-p-toluidine, reference compound]
- Infection rate (%) (gray mold fungus [17]; 1 ppm): 25%

Compound: N#Cc1c[nH]cc1-c1cccc2c1OC(F)(F)O2 [Fludioxonil, 4-(2,2-difluoro-1,3-benzodioxol-4-yl)-1H-pyrrole-3-carbonitrile, reference compound]
- Infection rate (%) (gray mold fungus [17]; 0.5 ppm): 20%

Compound: O=C1c2ccccc2C(=O)N1SC(Cl)(Cl)Cl [Folpet, N-(trichloromethylthio)phthalimide, reference compound]
- Infection rate (%) ([8]; 200 ppm): 20%

Compound: CCO[PH](=O)O [Fosetyl aluminum, ethyl hydrogenphosphonate]
- Infection rate (%) ([1]; 100 ppm): 25%

Compound: CC#Cc1cc(C)nc(Nc2ccccc2)n1 [Mepanipyrim, 2-anilino-4-methyl-6-(1-propynyl)pyrimidine, reference compound]
- Infection rate (%) (gray mold fungus [17]; 5 ppm): 20%

Compound: COCC(=O)N(c1c(C)cccc1C)[C@@H](C)C(=O)OC [Metalaxyl, methyl N-(2,6-dimethylphenyl)-N-(methoxyacetyl)-alaninate, reference compound]
- Infection rate (%) ([1]; 1 ppm): 20%
- Infection rate (%) ([16]; 5 ppm): 20%

Compound: COCC(=O)N(c1c(C)cccc1C)N1CCOC1=O [Oxadixyl, 2-methoxy-N-(2-oxo-1,3-oxazolidin-3-yl)aceto-2′,6′-xylidide]
- Infection rate (%) ([1]; 5 ppm): 20%

Compound: CC12CC1(C)C(=O)N(c1cc(Cl)cc(Cl)c1)C2=O (stereo not drawn) [Procymidone, N-(3,5-dichlorophenyl)-1,2-dimethylcyclopropane-1,2-dicarboxyimide, reference compound]
- Infection rate (%) (gray mold fungus [11]; 10 ppm): 25%
- Infection rate (%) (gray mold fungus [15]; 10 ppm): 25%

Compound: Cc1cc(C)nc(Nc2ccccc2)n1 [Pyrimetanil, 2-anilino-4,6-dimethylpyrimidine, reference compound]
- Infection rate (%) (gray mold fungus [17]; 10 ppm): 20%

Compound: S1SSSSSSS1 [Sulfur, sulfur, reference compound]
- Infection rate (%) ([18]; 500 ppm): 20%

Compound: c1ccc2[nH]c(-c3cscn3)nc2c1 [Thiabendazole, 2-(4′-thiazolyl)benzimidazole, reference compound]
- Infection rate (%) Sensitive fungus ([2]; 30 ppm): 25%
- Infection rate (%) Resistant fungus ([4]; 30 ppm): 100%

Compound: COC(=O)NC(=S)Nc1ccccc1NC(=S)NC(=O)OC [Thiophanate-methyl, 1,2-bis(3-methoxycarbonyl-2-thioureido)benzene, reference compound]
- Infection rate (%) Sensitive fungus ([2]; 10 ppm): 25%
- Infection rate (%) (apple scab fungus [3]; 10 ppm): 20%
- Infection rate (%) Resistant fungus ([4]; 10 ppm): 100%

Compound: Mancozeb [reference compound]
- Infection rate (%) ([9]; 50 ppm): 25%
- Infection rate (%) ([19]; 50 ppm): 25%

From US6518304B1, “Fungicidal composition” (Sumitomo Chemical Company, Limited, priority 1993, dated 2003)
